Assay results taken from patent publication US20210139435A1, “PROSTAGLANDIN ANALOGS AND USES THEREOF” (Lifex Biolabs, Inc., priority 2019, published 2021).
Blank lines part the entries; values can stand above or below the compound they belong to.

Target: T1, mouse Nurr1 full-length (Mus musculus, UniProt Q06219)
T1 construct: pcDNA3.1 Myc/His mouse Nurr1 full-length construct; expressed in transfected cells; host or cells: SK-N-BE2C
Test: Luciferase reporter gene assay for Nurr1 transcriptional activity in SK-N-BE2C cells
Type: cell-based
Conditions: relative activity over control (luminescence value; 1.0)
Protocol: To investigate whether the PG analogs of the present invention activate Nurr1 function, the inventors of the present invention employed an reporter gene assay and examined the transcriptional activation as described in Kim, C.-H. et al., Proceedings of the National Academy of Sciences 112, 8756-8761, doi:10.1073/pnas.1509742112 (2015).
The gene assay was performed by Luciferase assay as described below:
[Protocol for Luciferase Assay to Determine Nurr1 Transcriptional Activity] • 1. SK-N-BE2C cells were maintained in HyClone™ DMEM High Glucose (Cat. No.: SH30022.01) with 10% (v/v) fetal bovine serum (FBS), 100 units/ml penicillin and 100 μg/ml streptomycin. • 2. Seed 1.5×10^5 SK-N-BE2C cells/well into a 24-well plate and incubate at 37° C. with 5% CO2 for 24 hours. • 3. After 24 hours, transfect cells with pcDNA3.1 Myc/His mouse Nurr1 full-length construct, firefly luciferase reporter vector (pGL-3 basic from Promega, Cat. No.:E1751; with appropriate response element cloned in) and Renilla luciferase control vector (pRL-null from Promega, Cat. No.:E2271) in the ratio of 8:1:1 (Nurr1: firefly: renilla) or 400 ng, 50 ng and 50 ng respectively, amounting to a total of 500 ng in the 50 μl transfection mix for 1 well. • 4. To make the transfection mix, first prepare the DNA with P3000 reagent by adding the appropriate amount of DNA with 1 μl P3000 reagent and top up with Opti-MEM® I Reduced-Serum Media (from ThermoFisher Scientific [Cat. No.: 31985070]) to 25 μl. Incubate for 5 minutes at room temperature. • 5. Make another mix consisting of 1 μl Lipofectamine 3000 reagent with 24 μl Opti-MEM® I Reduced-Serum Media per well. Add this Lipofectamine mix to the previous DNA-P3000 mix (after the previous 5 minute incubation) and incubate them for 15 minutes at room temperature. [P3000:Lipofectamine=1:1]. • 6. In the meantime, change the media in the sample wells with fresh DMEM media without antibiotics. • 7. After 15 minutes incubation, add the 50 μl transfection mix into each well and incubate the plate for 24 hours at 37° C. with 5% CO2. • 8. After 24 hours, change the media to normal DMEM media with antibiotics and add various doses of compounds into designated wells and incubate the plate for another 24 hours at 37° C. with 5% CO2. • 9. Following the 24-hour incubation period, luciferase assay can be conducted using Dual-Glo Luciferase® kit from Promega (Cat. No.: E2920). • 10. Lyse each tested wells for 15 minutes with 75 μl of passive lysis buffer provided in the Dual-Luciferase® kit from Promega (Cat. No.: E1910). [Alternatively, add 75 μl of PBS and 75 μl of Dual-Glo® Luciferase Reagent and incubate for 10 minutes at room temperature (cover the plate with foil to protect from light). Transfer the entire sample in each well to a Greiner CELLSTAR® 96-well white polystyrene plate then proceed to step 13]. • 11. After 15 minutes, transfer each lysed sample to a Greiner CELLSTAR® 96-well white polystyrene plate (Cat. No.:655083). • 12. To each well of lysed cells, add 75 μl of Dual-Glo® Luciferase Reagent and incubate for 10 minutes at room temperature (cover the plate with foil to protect from light). • 13. Set the measurement with a 10-second integrated measurement period. • 14. Add 75 μl of Dual-Glo® Stop & Glo® reagent into each well and incubate for 10 minutes before commencing with the same parameters as before to determine the RLU for the Renilla luciferase. • 15. The averaged reading for wells corresponding to non-transfected cells can be subtracted from each RLU reading and duplicate/triplicate readings can then be averaged. Normalization of the luminescence reading for each well can be carried out by dividing the firefly luciferase RLU with the corresponding Renilla luciferase RLU. Each drug-treated well can then be normalized against the averaged DMSO-treated well reading.

T1 sequence (Q06219 whole entry): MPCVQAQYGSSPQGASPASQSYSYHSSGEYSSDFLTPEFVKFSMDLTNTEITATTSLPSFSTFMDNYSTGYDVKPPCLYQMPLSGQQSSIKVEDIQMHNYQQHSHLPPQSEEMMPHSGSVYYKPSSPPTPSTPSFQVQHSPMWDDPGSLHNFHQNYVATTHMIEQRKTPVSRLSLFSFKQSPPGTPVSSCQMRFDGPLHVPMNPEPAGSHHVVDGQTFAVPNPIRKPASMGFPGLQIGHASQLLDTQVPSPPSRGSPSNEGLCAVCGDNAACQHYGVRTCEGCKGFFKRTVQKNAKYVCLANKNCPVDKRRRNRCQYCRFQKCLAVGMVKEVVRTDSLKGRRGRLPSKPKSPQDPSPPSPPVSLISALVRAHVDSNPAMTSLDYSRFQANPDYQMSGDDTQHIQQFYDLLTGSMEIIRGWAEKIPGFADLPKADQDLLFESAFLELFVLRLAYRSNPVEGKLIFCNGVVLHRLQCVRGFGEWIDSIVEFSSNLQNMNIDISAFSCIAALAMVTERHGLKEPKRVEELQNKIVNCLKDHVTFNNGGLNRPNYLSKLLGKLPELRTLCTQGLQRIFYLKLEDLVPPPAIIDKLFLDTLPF

SMILES: CCCCC[C@H](O)/C=C/[C@H]1[C@H](O)CC(=O)[C@@H]1C/C=C\CCCC(=O)OCC(O)CO (some centres unmarked) [Compound 24, Prostaglandin E2-1-glyceryl ester]
Fold activity (1 uM): A (above 2.0 (high activity))

SMILES: C=C1C[C@H](O)[C@H](C/C=C\CCCC(=O)O)[C@H]1/C=C/[C@@H](O)CCCCC [Compound 25, 11-deoxy-11-methylene Prostaglandin D2]
Fold activity (1 uM): B (1.1~2.0 (moderate))

SMILES: CCCCC[C@](C)(O)/C=C/[C@H]1[C@H](O)CC(=O)[C@@H]1CCCCCCC(=O)O [Compound 27, 15(S)-15-methyl Prostaglandin E1]
Fold activity (1 uM): A (above 2.0 (high activity))

SMILES: CCCCC[C@H](O)/C=C/[C@H]1[C@H](O)CC(=O)[C@@H]1C/C=C\CCCC(=O)OC [Compound 28, Prostaglandin E2 methyl ester]
Fold activity (1 uM): A (above 2.0 (high activity))

SMILES: CCCCCC(=O)CC[C@H]1[C@H](O)CC(=O)[C@@H]1C/C=C\CCCC(=O)O [Compound 29, 13,14-dihydro-15-keto Prostaglandin E2]
Fold activity (1 uM): B (1.1~2.0 (moderate))

SMILES: O=C(O)CCC/C=C\C[C@H]1C(=O)C[C@@H](O)[C@@H]1/C=C/[C@@H](O)Cc1ccccc1 [Compound 30, 16-phenyl tetranor Prostaglandin E2]
Fold activity (1 uM): A (above 2.0 (high activity))

SMILES: CCCC1([C@H](O)C/C=C/[C@H]2[C@H](O)CC(=O)[C@@H]2CCCCCCC(=O)O)CCC1 [Compound 31, (R)-Butaprost (free acid)]
Fold activity (1 uM): B (1.1~2.0 (moderate))

SMILES: CCCCC[C@H](O)/C=C/[C@H]1C(=O)C[C@H](O)[C@@H]1C/C=C\CCCC(=O)NC(CO)CO [Compound 32, Prostaglandin D2 serinol amide]
Fold activity (1 uM): C (below 1.0 (low activity))

SMILES: CCCCCC(=O)CC[C@H]1C(=O)C[C@H](O)[C@@H]1C/C=C\CCCC(=O)O [Compound 33, 13,14-dihydro-15-keto Prostaglandin D2]
Fold activity (1 uM): B (1.1~2.0 (moderate))

SMILES: CCCCC[C@H](O)/C=C/[C@H]1[C@H](O)CC(=O)[C@@H]1CCCCCCCCC(=O)O [Compound 34, 1a,1b-dihomo Prostaglandin E1]
Fold activity (1 uM): B (1.1~2.0 (moderate))

SMILES: CCCC1([C@H](O)C/C=C/[C@H]2[C@H](O)CC(=O)[C@@H]2CCCCCCC(=O)OC)CCC1 [Compound 35, (R)-Butaprost]
Fold activity (1 uM): B (1.1~2.0 (moderate))

SMILES: CCCCC[C@H](O)/C=C/[C@H]1[C@H](O)CC(=O)[C@@H]1C/C=C\CCCC(=O)NCCO [Compound 36, Prostaglandin E2 Ethanolamide]
Fold activity (1 uM): B (1.1~2.0 (moderate))

SMILES: CCCCC[C@@H](O)/C=C/[C@H]1[C@H](O)CC(=O)[C@@H]1C/C=C\CCCC(=O)O [Compound 37, 15(R)-Prostaglandin E2]
Fold activity (1 uM): B (1.1~2.0 (moderate))

SMILES: O=C(O)CCC/C=C\C[C@H]1C(=O)C[C@@H](O)[C@@H]1/C=C/[C@@H](O)CCc1ccccc1 [Compound 38, 17-phenyl trinor Prostaglandin E2]
Fold activity (1 uM): B (1.1~2.0 (moderate))

SMILES: CCCCC[C@H](O)/C=C/[C@H]1[C@H](O)CC(=O)[C@@H]1C/C=C\CCCC(=O)NCCCCCNC(=O)CCCC[C@H]1SC[C@@H]2NC(=O)N[C@@H]21 [Compound 39, Prostaglandin E2-biotin]
Fold activity (1 uM): B (1.1~2.0 (moderate))

SMILES: CCCCC[C@H](O)/C=C/[C@H]1[C@H](O)CC(=O)[C@@H]1C/C=C\CCCC(=O)NC(CO)CO [Compound 40, Prostaglandin E2 serinol amide]
Fold activity (1 uM): C (below 1.0 (low activity))

Other lines, results leading:

Fold activity (1 uM): C (below 1.0 (low activity))
SMILES: CCCCC[C@H](O)C/C=C1/C(=O)C[C@H](O)[C@@H]1C/C=C\CCCC(=O)O [Compound 41, D12-Prostaglandin D2]

Fold activity (1 uM): A (above 2.0 (high activity))
SMILES: CCCCC[C@H](O)/C=C/[C@H]1[C@H](O)CC(=O)[C@@H]1CC(=O)CCCCC(=O)O [Compound 42, 6-keto Prostaglandin E1]

Fold activity (1 uM): B (1.1~2.0 (moderate))
SMILES: CCCC1([C@H](O)C/C=C/[C@H]2[C@H](O)CC(=O)[C@@H]2C/C=C\CCCC(=O)O)CCC1 [Compound 43, CAY10408]

Fold activity (1 uM): A (above 2.0 (high activity))
SMILES: CCCCC[C@H](O)/C=C/[C@H]1[C@H](O)CC(=O)[C@@H]1C/C=C/CCCC(=O)Oc1ccc(NC(C)=O)cc1 [Compound 44, Prostaglandin E2 p-acetamidophenyl ester]

Fold activity (1 uM): B (1.1~2.0 (moderate))
SMILES: CCCCCC(=O)/C=C/[C@H]1[C@H](O)CC(=O)[C@@H]1C/C=C\CCCC(=O)O [Compound 45, 15-keto Prostaglandin E2]

Fold activity (1 uM): C (below 1.0 (low activity))
SMILES: O=C(O)CCCCC(=O)CC[C@H]1[C@H](O)CC(=O)[C@@H]1CCC(=O)O [Compound 46, tetranor-PGEM]

Fold activity (1 uM): B (1.1~2.0 (moderate))
SMILES: CCCCC[C@@H](O)/C=C/[C@H]1[C@H](C/C=C\CCCC(=O)O)C(=O)C[C@@H]1O [Compound 47, ent-Prostaglandin E2]

Fold activity (1 uM): C (below 1.0 (low activity))
SMILES: CCCCC[C@H](O)/C=C/[C@H]1C(=O)C[C@H](O)[C@@H]1CCCCCCC(=O)O [Compound 48, Prostaglandin D1]

Fold activity (1 uM): C (below 1.0 (low activity))
SMILES: CCCCC[C@@](C)(O)/C=C/[C@H]1C(=O)C[C@H](O)[C@@H]1C/C=C\CCCC(=O)O [Compound 49, 15(R)-15-methyl Prostaglandin D2]

Fold activity (1 uM): A (above 2.0 (high activity))
SMILES: CCCCC[C@H](O)/C=C/[C@H]1[C@H](O)CC(=O)[C@H]1CCCCCCC(=O)O [Compound 50, 8-iso Prostaglandin E1]

Fold activity (1 uM): A (above 2.0 (high activity))
SMILES: CCCCC(C)(C)[C@@H](O)/C=C/[C@H]1[C@H](O)CC(=O)[C@@H]1CCCCCCC(=O)O [Compound 51, 16,16-dimethyl Prostaglandin E1]

Fold activity (1 uM): A (above 2.0 (high activity))
SMILES: CCCCC[C@H](O)/C=C/[C@H]1[C@H](O)CC(=O)[C@@H]1C/C=C\CCCC(=O)Oc1ccc(NC(=O)c2ccccc2)cc1 [Compound 52, Prostaglandin E2 p-benzamidophenyl ester]

Fold activity (1 uM): B (1.1~2.0 (moderate))
SMILES: CCCCC[C@@](C)(O)/C=C/[C@H]1[C@H](O)CC(=O)[C@@H]1C/C=C\CCCC(=O)O [Compound 53, 15(R)-15-methyl Prostaglandin E2]

Fold activity (1 uM): A (above 2.0 (high activity))
SMILES: C[C@@H](O)CCC[C@H](O)/C=C/[C@H]1[C@H](O)CC(=O)[C@@H]1C/C=C\CCCC(=O)O [Compound 54, 19(R)-hydroxy Prostaglandin E2]

Fold activity (1 uM): C (below 1.0 (low activity))
SMILES: CCCCC[C@H](O)/C=C/[C@H]1C(=O)C[C@H](O)[C@@H]1C/C=C\CCCC(=O)OC [Compound 55, Prostaglandin D2 methyl ester]

Fold activity (1 uM): C (below 1.0 (low activity))
SMILES: CCCCC[C@@H](O)/C=C/[C@H]1C(=O)C[C@H](O)[C@@H]1CCCCCCCO [Compound 56, Prostaglandin D1 Alcohol]

Fold activity (1 uM): B (1.1~2.0 (moderate))
SMILES: CCCCC[C@](C)(O)/C=C/[C@H]1C(=O)C[C@H](O)[C@@H]1C/C=C\CCCC(=O)O [Compound 57, 15(S)-15-methyl Prostaglandin D2]

Fold activity (1 uM): A (above 2.0 (high activity))
SMILES: CCCCC[C@H](O)CC[C@H]1[C@H](O)CC(=O)[C@@H]1CCCCCCC(=O)O [Compound 58, 13,14-dihydro Prostaglandin E1]

Fold activity (1 uM): B (1.1~2.0 (moderate))
SMILES: O=C(O)CCCCCC[C@H]1C(=O)C[C@@H](O)[C@@H]1/C=C/[C@@H](O)Cc1ccccc1 [Compound 59, 16-phenyl tetranor Prostaglandin E1]
